Read-outs that look alike come from different tables or passages of the source.
Legend:
C2C12 cells [1] = settings: for protein content / protein content, percentage difference from vehicle: 3 days in fusion medium
Method: Procedure A—Three days in fusion medium. C2hAR57 cells were plated in 12-well tissue culture plates (Costar, Corning, N.Y.) at 4×10^4 cells/well in high mitogen growth medium.

[2] = tested on: IGFBP4 transcripts in C2hAR57 cells; settings: C2hAR57, 100 nM DHT
Method: (§1) Day zero samples were harvested just prior to the induction of differentiation. […] Total RNA was isolated using Trizol®, and RNA concentration was determined by UV spectroscopy. Samples containing 20 micrograms of total RNA were separated by electrophoresis on formaldehyde-containing agarose gels, transferred to Duralon-UV™ nylon membrane (Stratagene, La Jolla, Calif.) by capillary blotting in 5×SSPE and probed sequentially for IGFBP4, IGF-II and 18S ribosomal RNA. DNA fragments used for probes were generated by reverse transcription polymerase chain reaction using rat skeletal muscle poly A+ RNA as template. […] Probes were denatured by boiling and used at a concentration of 1-2×10^6 dpm/ml hybridization solution (50% formamide, 6×SSC, 1% SDS, 15×Denhardt's solution, 0.1 mg/ml sheared salmon sperm DNA). Following hybridization at 42° C. for at least 24 hours, the membranes were washed to moderate stringency with 0.3×SSC/0.1% SDS at 55° C. […] Between successive probings, the membrane was stripped by incubation at 70° C. for one to three hours in a solution consisting of 5 mM Tris HCl, pH 8, 0.2 mM Na2EDTA, 0.05% sodium pyrophosphate and 0.1×Denhardt's solution. The imaging plate was exposed for 42 hours and 90 minutes to the IGFBP4 and IGF-II hybridizations, respectively. The 18S signal was used to normalize the hybridization signals from each of the other probes.

[3] = tested on: IGF-II transcripts in C2hAR57 cells; settings: C2hAR57, 100 nM DHT
Method: as §1

[4] = tested on: IGFBP4 transcripts in C2C12 cells; settings: C2C12, 100 nM DHT
Method: as §1

[5] = tested on: IGF-II transcripts in C2C12 cells; settings: C2C12, 100 nM DHT
Method: as §1

C2hAR57 cells [6] = assay: [3H]-thymidine uptake assay, C2hAR57 cells; type: cell-based, mouse; settings: 48 hours exposure
Method: After 48 hours exposure to the test agents, medium containing 0.1 μCi [^3H]-thymidine (82 Ci/mmol, Amersham, Buckinghamshire, UK) per well was added and incubation was continued for two additional hours at 37° C. The assay was terminated by aspirating the culture medium and washing with ice-cold phosphate buffered saline followed by 5% trichloroacetic acid. The cells where then lysed by applying 0.3 N NaOH (75 μl per well) followed by 0.3 N HCl (75 μl per well) to neutralize the NaOH. The radioactivity in 50-μl aliquots was determined by liquid scintillation counting in 96-well plates (Packard Instrument Corporation) using a TopCount™ Scintillation Counter (Packard Instrument Corporation).

C2hAR57 cells [7] = settings: for Change in protein content: during 24 hours in fusion medium
Method: Procedure B—24 Hours in fusion medium. […] Cell extracts were prepared from the second set of cultures after 24 hours in fusion medium (day one). The change in protein content was determined by subtracting the average protein content for each treatment on day zero from the average protein content on day one.

C2C12 cells [8] = settings: C2C12, 100 nM DHT, 24 hours in fusion medium
Method: (§2) All cultures were approximately 80% confluent at the time of mitogen withdrawal. After 24 hour in fusion medium, the medium containing nonadherent cells was transferred to centrifuge tubes. The dishes were then rinsed with phosphate buffered saline and adherent cells were collected by trypsinization. Cell pellets were recovered by centrifugation and lysed in 50 mM Tris HCl, pH 8, 100 mM Na2EDTA, 0.5% sodium dodecylsulfate. […] DNA yields from pools of five dishes were determined by UV spectroscopy at 260 nm. Aliquots corresponding to 10 μg DNA were analyzed by electrophoresis on a 1% agarose gel in TBE buffer and visualized by ethidium bromide fluorescence with UV transillumination.

C2hAR57 cells [9] = settings: C2hAR57, 100 nM DHT
Method: as §2

C2hAR57 cells [10] = settings: C2hAR57, 100 nM DHT, 1, 2 or 3 days in fusion medium
From the text: Fusion medium was changed daily. C2hAR57 cells at low density in high mitogen growth medium appeared as small, adherent mononuclear cells.

C2C12 cells [11] = settings: C2C12, 100 nM DHT
Method: (§3) Each cell sample was pelleted by low-speed centrifugation and resuspended in 0.5 ml phosphate buffered saline containing 100 micrograms/ml ribonuclease A and 20 microgram/ml propidium iodide for 30 minutes at room temperature.

C2hAR57 cells [12] = settings: C2hAR57, 100 nM DHT; remark: listed apart in the source
Method: as §3

With `C[C@]12CCC(=O)C[C@@H]1CC[C@@H]1[C@@H]2CC[C@]2(C)[C@@H](O)CC[C@@H]12` [DHT, dihydrotestosterone] the protein content (C2C12 cells [1]; C2C12, 0.001 nM DHT) was 245 ± 5 micrograms/well, the “protein content, percentage difference from vehicle” value (C2C12 cells [1]; C2C12, 0.001 nM DHT) was “+3%” and the protein content (C2C12 cells [1]; C2C12, 0.01 nM DHT) was 228 ± 3 micrograms/well. The “protein content, percentage difference from vehicle” value (C2C12 cells [1]; C2C12, 0.01 nM DHT) was −4%, the protein content (C2C12 cells [1]; C2C12, 0.1 nM DHT) was 246 ± 4 micrograms/well and the “protein content, percentage difference from vehicle” value (C2C12 cells [1]; C2C12, 0.1 nM DHT) was “+3%”. The protein content (C2C12 cells [1]; C2C12, 1 nM DHT) was 256 ± 9 micrograms/well, the “protein content, percentage difference from vehicle” value (C2C12 cells [1]; C2C12, 1 nM DHT) was “+7%” and the protein content (C2C12 cells [1]; C2C12, 10 nM DHT) was 243 ± 6 micrograms/well. For the same molecule, the “protein content, percentage difference from vehicle” value (C2C12 cells [1]; C2C12, 10 nM DHT) was “+2%”, the protein content (C2C12 cells [1]; C2C12, 100 nM DHT) was 243 ± 6 micrograms/well and the “protein content, percentage difference from vehicle” value (C2C12 cells [1]; C2C12, 100 nM DHT) was “+2%”. For the same molecule, the protein content (C2C12 cells [1]; C2C12, 1000 nM DHT) was 278 ± 2 micrograms/well, the “protein content, percentage difference from vehicle” value (C2C12 cells [1]; C2C12, 1000 nM DHT) was “+17%” and the “change in total protein content” value (C2C12 cells [1]; C2C12 cultures, DHT 10^-12-10^-6 M, Procedure A) was “no consistent change”. The “magnitude of IGFBP4 suppression” value ([2]; 0 days in fusion medium) was 75%, the “magnitude of IGFBP4 suppression” value ([2]; 1 day in fusion medium) was 86% and the “magnitude of IGFBP4 suppression” value ([2]; 2 days in fusion medium) was 70%. For the same molecule, the “increase of IGF-II transcripts” value ([3]; 0 days in fusion medium) was 10.2 ×, the “increase of IGF-II transcripts” value ([3]; 1 day in fusion medium) was 3.6 × and the “increase of IGF-II transcripts” value ([3]; 2 days in fusion medium) was 2 ×. The “magnitude of IGFBP4 suppression” value ([4]; 0 days in fusion medium) was 20%, the “magnitude of IGFBP4 suppression” value ([4]; 1 day in fusion medium) was 51% and the “magnitude of IGFBP4 suppression” value ([4]; 2 days in fusion medium) was 44%. For the same molecule, the “increase of IGF-II transcripts” value ([5]; 0 days in fusion medium) was 0.8 ×, the “increase of IGF-II transcripts” value ([5]; 1 day in fusion medium) was 1.5 × and the “increase of IGF-II transcripts” value ([5]; 2 days in fusion medium) was 1.0 ×. For the same molecule, the “effect on [3H]-thymidine uptake” value (C2hAR57 cells [6]) was “dose-dependent inhibitory effects”, the “Change in protein content” value (C2hAR57 cells [7]; C2hAR57, 0.001 nM DHT) was −93 micrograms/well and the “Change in protein content” value (C2hAR57 cells [7]; C2hAR57, 0.1 nM DHT) was −56 micrograms/well. For the same molecule, the “Change in protein content” value (C2hAR57 cells [7]; C2hAR57, 10 nM DHT) was “+48 micrograms/well”, the “Change in protein content” value (C2hAR57 cells [7]; C2hAR57, 1000 nM DHT) was “+61 micrograms/well” and the “effect on net loss of protein seen with vehicle” value (C2hAR57 cells [7]; C2hAR57, increasing concentrations of DHT, Procedure B) was “ameliorated and even reversed”. For the same molecule, the “DNA, adherent cells” value (C2C12 cells [8]) was 504 μg/dish, the “DNA, nonadherent cells (% total)” value (C2C12 cells [8]) was 2.9% and the “effect on the fraction of nonadherent cells” value (C2C12 cells [8]) was “did not appreciably alter”. For the same molecule, the “reduction of the incidence of apoptotic cells” value (C2hAR57 cells [9]; 24 hour period following mitogen withdrawal) was “approximately 75%”, the “DNA, adherent cells” value (C2hAR57 cells [9]; 24 hours in fusion medium) was 528 μg/dish and the “DNA, nonadherent cells” value (C2hAR57 cells [9]; 24 hours in fusion medium) was 2.6 μg/dish. For the same molecule, the “DNA, nonadherent cells (% total)” value (C2hAR57 cells [9]; 24 hours in fusion medium) was 0.5%, the “rate of myotube formation” value (C2hAR57 cells [10]) was “more rapidly” and the “effect on fraction of cells at each stage of the cell cycle” value (C2C12 cells [11]) was “unaffected”. The “Percentage of cells in G2-M” value (C2C12 cells [11]; 24 h) was 15.6 ± 1.2%, the “Percentage of cells in GO-G1” value (C2C12 cells [11]; 24 h) was 40.3 ± 0.8% and the “Percentage of cells in S” value (C2C12 cells [11]; 24 h) was 45.3 ± 1.1%. The “Percentage of cells in G2-M” value (C2C12 cells [11]; 48 h) was 15.8 ± 0.7%, the “Percentage of cells in GO-G1” value (C2C12 cells [11]; 48 h) was 38.0 ± 0.6% and the “Percentage of cells in S” value (C2C12 cells [11]; 48 h) was 46.2 ± 0.7%. The “Percentage of cells in G2-M” value (C2hAR57 cells [12]; 24 h) was 14.3 ± 0.4 %, the “Percentage of cells in GO-G1” value (C2hAR57 cells [12]; 24 h) was 54.5 ± 0.7 % and the “Percentage of cells in S” value (C2hAR57 cells [12]; 24 h) was 31.2 ± 0.6 %. For the same molecule, the “Percentage of cells in G2-M” value (C2hAR57 cells [12]; 48 h) was 15.1 ± 1.1 %, the “Percentage of cells in GO-G1” value (C2hAR57 cells [12]; 48 h) was 51.2 ± 2.8 % and the “Percentage of cells in S” value (C2hAR57 cells [12]; 48 h) was 33.7 ± 3.2 %.

Source: patent US20030215888A1, “Androgen receptor overexpressing skeletal myoblasts” (Pfizer Inc., priority 2002, published 2003)
